From US20220177477A1 (Central China Normal University, priority 2019, published 2022)

Columns and labels:
[1] = biological target: T1, TRKB (Homo sapiens, UniProt Q16620); experiment: In vitro biochemical HTRF KinEASE kinase inhibition, TRKB; conditions: wild-type kinase, final ATP 2.56 μmol/L
T1 construct: purchased Carna Biosciences 08-187
Method: The material and the method are as follows: wild-type kinases such as TRKA, TRKB and TRKC, and mutant kinases such as TRKA-G595R, TRKA-G667C, TRKA-F589L, TRKC-G623R and TRKC-G696A, and are derived from Carna Biosciences 08-186, 08-187, 08-197; HTRF KinEASE TKkit (Cisbio 62TKO PEC); 384 well plates (Greiner corporation); ATP (Life technologies PV 3227), MgCl2 (sigma); PHERAstar FS Multifunctional microplate reader (BMG Co.); low speed centrifuge (StaiteXiangyi corporation); incubator (Binder company).
Preparing a compound working solution: the dispensed compounds were removed from the freezer prior to testing and diluted to 100× concentration with pure DMSO; then the compound was diluted to the desired concentration of 4× with deionized water;
Preparation of 1.33× enzyme buffer (enzyme buffer): 5× enzyme buffer (from HTRF kit) was diluted to 1.33× with deionized water and the corresponding ingredients were added at a final concentration of 1.33×: 1.33 mmol/L Dithiothreitol (DTT), 1.33 mmol/L MnCl2, 6.65 mmol/L MgCl2 and 39.9 nmol/L SEB;
Preparation of a kinase working solution: TRKA, TRKB and TRKC were diluted with 1.33× enzyme buffer to the required concentrations of 2× of 0.404 ng/μL, 0.304 ng/μL and 0.236 ng/μL, respectively;
Preparing a substrate working solution: a mixture of TK Substrate Blr diluted to the desired final concentration of 4× (from HTRF kit) and ATP (10 mM) with 1.33× enzyme buffer; the final ATP concentrations for TRKA, TRKB, and TRKC were: 3.727 μmol/L, 2.56 μmol/L and 2.526 μmol/L. The TK Substrate-biotin (from HTRF KinEASE TKkit) final concentrations were all: 0.2 μmol/L.
Preparing a detection working solution: 16.67 μmol/L of Streptavidin-XL665 (Streptavidin-XL 665) were diluted to the desired final concentration of 4× with HTRF test buffer and then mixed with an equal volume of Antibody-europium Cryptate (Antibody-Cryptate) (both from HTRF kits).
An enzyme reaction step: add 4 μL of kinase working solution to each well of a low volume 384 microwell plate along with 4 μL of 1.33× enzyme buffer as a Negative control (Negative); add 2 μl of compound working solution to the wells, while adding 2 μl of […] aqueous solution as a zero compound concentration control (i.e., Positive control, Positive); incubating at 25° C. for 5 min; add 2 μL of substrate working solution to the wells to start the enzymatic reaction, shake the reaction for 30 min at 37° C.
HTRF reagent detection step: adding […] to the hole to terminate the reaction; reacting for 1 h at 25° C.;
Reading of HTRF signal: the PHERAstar FS reading is adopted to detect signals, and the corresponding setting of the instrument is as follows:
For the raw data read out per well, the ratio=665 nm/620 nm;
Calculation of inhibition rate:
Calculation of IC50 values: with the logarithm of the compound concentration as abscissa and the inhibition as ordinate, a non-linear curve was fitted in GraphPad Prism 5: log (inhibitor) vs. response—Variable slope, and calculating the concentration of the compound to be detected, namely IC50, when the enzyme activity inhibition rate is 50%.

[2] = Drug metabolism study in rats, oral administration; conditions: rat
[3] = Drug metabolism study in rats, intravenous administration; conditions: rat, plasma, iv, 1 mg/kg
[4] = biological target: T2, TRKA (Homo sapiens, UniProt P04629); experiment: In vitro biochemical HTRF KinEASE kinase inhibition, TRKA; conditions: wild-type kinase, final ATP 3.727 μmol/L; read-out: TRKA IC50
T2 construct: purchased Carna Biosciences 08-186

[5] = biological target: T3, TRKC (Homo sapiens, UniProt Q16288); experiment: In vitro biochemical HTRF KinEASE kinase inhibition, TRKC; conditions: wild-type kinase, final ATP 2.526 μmol/L
T3 construct: purchased Carna Biosciences 08-197
T3 sequence (Q16288 32-825 isoform Q16288-3 limits assumed): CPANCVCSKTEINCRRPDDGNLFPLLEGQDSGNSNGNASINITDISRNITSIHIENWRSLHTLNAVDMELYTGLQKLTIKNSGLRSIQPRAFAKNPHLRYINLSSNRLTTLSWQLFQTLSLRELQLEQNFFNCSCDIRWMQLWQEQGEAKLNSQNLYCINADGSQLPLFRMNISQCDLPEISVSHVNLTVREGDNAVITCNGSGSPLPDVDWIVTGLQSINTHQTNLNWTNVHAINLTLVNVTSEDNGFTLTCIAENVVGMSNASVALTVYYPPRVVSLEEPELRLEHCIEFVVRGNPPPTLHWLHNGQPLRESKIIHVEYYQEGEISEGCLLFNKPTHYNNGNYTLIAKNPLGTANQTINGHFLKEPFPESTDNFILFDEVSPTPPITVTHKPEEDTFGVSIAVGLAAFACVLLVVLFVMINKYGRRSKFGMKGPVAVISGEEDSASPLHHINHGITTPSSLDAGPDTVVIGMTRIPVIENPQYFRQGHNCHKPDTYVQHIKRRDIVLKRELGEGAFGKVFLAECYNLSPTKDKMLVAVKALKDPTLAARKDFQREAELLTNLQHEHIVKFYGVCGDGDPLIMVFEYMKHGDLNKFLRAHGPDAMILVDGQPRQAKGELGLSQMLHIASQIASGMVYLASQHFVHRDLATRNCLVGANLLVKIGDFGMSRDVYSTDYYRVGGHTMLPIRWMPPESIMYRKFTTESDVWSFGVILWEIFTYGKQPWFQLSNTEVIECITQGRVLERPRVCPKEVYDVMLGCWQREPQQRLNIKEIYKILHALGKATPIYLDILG

T2 sequence (P04629 33-796): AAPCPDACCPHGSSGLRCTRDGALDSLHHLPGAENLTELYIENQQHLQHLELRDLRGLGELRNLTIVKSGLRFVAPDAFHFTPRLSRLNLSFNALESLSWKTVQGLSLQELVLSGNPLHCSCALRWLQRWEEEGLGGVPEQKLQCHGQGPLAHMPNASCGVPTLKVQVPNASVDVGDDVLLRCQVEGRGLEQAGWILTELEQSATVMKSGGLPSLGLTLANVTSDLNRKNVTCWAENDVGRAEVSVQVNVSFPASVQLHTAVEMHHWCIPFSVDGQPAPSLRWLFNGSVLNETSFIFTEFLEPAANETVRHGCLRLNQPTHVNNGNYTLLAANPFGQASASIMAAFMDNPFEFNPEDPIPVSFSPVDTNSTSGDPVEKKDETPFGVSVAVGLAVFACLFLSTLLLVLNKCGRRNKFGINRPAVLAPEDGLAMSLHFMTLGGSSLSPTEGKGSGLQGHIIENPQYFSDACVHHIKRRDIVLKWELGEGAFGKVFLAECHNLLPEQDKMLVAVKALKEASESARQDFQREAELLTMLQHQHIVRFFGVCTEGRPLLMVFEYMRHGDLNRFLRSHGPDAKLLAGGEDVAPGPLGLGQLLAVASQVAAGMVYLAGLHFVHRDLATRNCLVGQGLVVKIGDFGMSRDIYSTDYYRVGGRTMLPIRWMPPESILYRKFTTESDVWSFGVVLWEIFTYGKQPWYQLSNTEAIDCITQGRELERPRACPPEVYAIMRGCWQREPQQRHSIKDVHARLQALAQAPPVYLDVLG
T1 sequence (Q16620 32-822): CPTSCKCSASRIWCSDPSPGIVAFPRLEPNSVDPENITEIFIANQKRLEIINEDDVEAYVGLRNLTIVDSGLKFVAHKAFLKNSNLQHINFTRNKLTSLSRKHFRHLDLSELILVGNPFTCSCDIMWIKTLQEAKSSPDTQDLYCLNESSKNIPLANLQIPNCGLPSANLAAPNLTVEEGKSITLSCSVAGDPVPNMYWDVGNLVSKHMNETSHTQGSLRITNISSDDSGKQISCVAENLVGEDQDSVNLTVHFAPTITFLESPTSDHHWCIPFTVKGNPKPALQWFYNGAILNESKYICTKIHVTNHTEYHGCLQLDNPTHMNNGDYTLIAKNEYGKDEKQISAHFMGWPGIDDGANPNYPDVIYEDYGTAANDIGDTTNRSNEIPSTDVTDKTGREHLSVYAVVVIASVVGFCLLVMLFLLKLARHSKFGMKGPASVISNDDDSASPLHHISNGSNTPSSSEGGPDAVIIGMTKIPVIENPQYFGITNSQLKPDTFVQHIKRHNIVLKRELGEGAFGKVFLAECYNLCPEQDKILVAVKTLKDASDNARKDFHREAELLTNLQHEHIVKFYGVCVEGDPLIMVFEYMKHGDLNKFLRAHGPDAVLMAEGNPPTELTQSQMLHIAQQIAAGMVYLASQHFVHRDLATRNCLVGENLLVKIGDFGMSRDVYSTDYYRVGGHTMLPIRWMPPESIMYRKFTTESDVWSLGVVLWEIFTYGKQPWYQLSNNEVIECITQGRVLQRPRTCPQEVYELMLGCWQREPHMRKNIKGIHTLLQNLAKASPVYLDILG

Structure (SMILES)	IC50 [1] [nM]	IC50 [4] [nM]	IC50 [5] [nM]	further results
CC(Nc1ccn2ncc(-c3cnn(C4CC4)c3)c2n1)c1cc(F)ccc1OCC(F)F (stereo not drawn) [Compound 4, 3-(1-cyclopropyl-1H-pyrazol-4-yl)-N-(1-(2-(2,2-difluoroethoxy)-5-fluorophenyl)ethyl) pyrazolo [1,5-a] pyrimidin-5-amine]	15.9	12.2	24.9	
CC(Nc1ccn2ncc(-c3cnn(C4CCCC4O)c3)c2n1)c1cc(F)ccc1OCC(F)F (stereo not drawn) [Compound 8, 2-(4-(5-((1-(2-(2,2-difluoroethoxy)-5-fluorophenyl)ethyl)amino)pyrazolo [1,5-a]pyrimidin-3-yl)-1H-pyrazol-1-yl) cyclopentan-1-ol]	5.7	5.4	9.8	
CC(Nc1ccn2ncc(-c3cn[nH]c3)c2n1)c1ccccc1OCC(F)F (stereo not drawn) [Compound 16, N-(1-(2-(2,2-difluoroethoxy)phenyl)ethyl)-3-(1H-pyrazol-4-yl) pyrazolo [1,5-a] pyrimidin-5-amine]	8.6	8.5	12.2	
CC(Nc1ccn2ncc(-c3cnn(C)c3)c2n1)c1cc(F)ccc1OCC1CC1 (stereo not drawn) [Compound a26-38, N-(1-(2-(cyclopropylmethoxy)-5-fluorophenyl)ethyl)-3-(1-methyl-1H-pyrazol-4-yl) pyrazolo [1,5-a] pyrimidin-5-amine]	6.7	11.5	9.9	
CC(Nc1ccn2ncc(-c3cnn(C)c3)c2n1)c1cc(F)ccc1OC1CCOC1 (stereo not drawn) [Compound a27-41, N-(1-(5-fluoro-2-((tetrahydrofuran-3-yl)oxy)phenyl)ethyl)-3-(1-methyl-1H-pyrazol-4-yl) pyrazolo [1,5-a] pyrimidin-5-amine]	5.8	7.7	7.1	
CC(Nc1ccn2ncc(-c3cn[nH]c3)c2n1)c1cc(F)ccc1OCF (stereo not drawn) [Compound b3-6, N-(1-(5-fluoro-2-(fluoromethoxy)phenyl)ethyl)-3-(1H-pyrazol-4-yl) pyrazolo [1,5-a] pyrimidin-5-amine]	13	18.1	15.5	
CCCOc1ccc(F)cc1C(C)Nc1ccn2ncc(-c3cn[nH]c3)c2n1 (stereo not drawn) [Compound b9-33, N-(1-(5-fluoro-2-propoxyphenyl)ethyl)-3-(1H-pyrazol-4-yl) pyrazolo [1,5-a] pyrimidin-5-amine]	5.5	6	12.2	
CC(Nc1ccn2ncc(-c3cn[nH]c3)c2n1)c1cc(F)ccc1OCCCF (stereo not drawn) [Compound b10-34, N-(1-(5-fluoro-2-(3-fluoropropoxy)phenyl)ethyl)-3-(1H-pyrazol-4-yl) pyrazolo [1,5-a] pyrimidin-5-amine]	9.8	9.7	14.1	
CC(Nc1ccn2ncc(-c3cn[nH]c3)c2n1)c1cc(F)ccc1OC1CCCC1 (stereo not drawn) [Compound b13-39, N-(1-(2-(cyclopentyloxy)-5-fluorophenyl)ethyl)-3-(1H-pyrazol-4-yl) pyrazolo [1,5-a] pyrimidin-5-amine]	5.9	7.9	8	
CC(Nc1ccn2ncc(-c3cn[nH]c3)c2n1)c1cc(F)ccc1OC1CCOC1 (stereo not drawn) [Compound b14-40, N-(1-(5-fluoro-2-((tetrahydrofuran-3-yl)oxy)phenyl)ethyl)-3-(1H-pyrazol-4-yl) pyrazolo [1,5-a] pyrimidin-5-amine]	8.6	4.51	11.7	

Compounds with a lower IC50 [1], results first:

IC50 [1] [nM]	IC50 [4] [nM]	IC50 [5] [nM]	Structure (SMILES)	further results
2.8			C[C@@H](Nc1ccn2ncc(-c3cnn(C)c3)c2n1)c1cc(F)ccc1OCC(F)F [Compound 2, (R)-N-(1-(2-(2,2-difluoroethoxy)-5-fluorophenyl)ethyl)-3-(1-methyl-1H-pyrazol-4-yl) pyrazolo [1,5-a] pyrimidin-5-amine]	CL ([2]; oral 5 mg/kg): 10.12 L/h/kg; Vz ([2]; oral 5 mg/kg): 37.61 L/kg; AUC(0-t) ([2]; plasma, po, 5 mg/kg): 533 ng·h/mL; Cmax ([2]; plasma, po, 5 mg/kg): 150 ng/mL; MRT last ([2]; plasma, po, 5 mg/kg): 2.62 h; Tmax ([2]; plasma, po, 5 mg/kg): 40.2 min; bioavailability ([2]; plasma, po, 5 mg/kg): 30.2%; half-life ([2]; plasma, po, 5 mg/kg): 171 min; AUC(0-t) [3]: 353 ng·h/mL; Cmax [3]: 298 ng/mL; MRT last [3]: 1.49 h; Vd [3]: 6.8 L/kg; clearance [3]: 46 mL/min/kg; half-life [3]: 103 min
4.8	5.8	7.1	CC(Nc1ccn2ncc(-c3cnn(C(F)F)c3)c2n1)c1cc(F)ccc1OCC(F)F (stereo not drawn) [Compound 3, N-(1-(2-(2,2-difluoroethoxy)-5-fluorophenyl)ethyl)-3-(1-(difluoromethyl)-1H-pyrazol-4-yl) pyrazolo [1,5-a] pyrimidin-5-amine]	
1.3	2.4	2.4	C[C@@H](Nc1ccn2ncc(-c3cnn(CC#N)c3)c2n1)c1cc(F)ccc1OCC(F)F [Compound 7]	
2.7	3.8	5.5	C[C@@H](Nc1ccn2ncc(-c3cnn(C4CCCCO4)c3)c2n1)c1cc(F)ccc1OCC(F)F (stereo partly drawn) [Compound 10, N-((R)-1-(2-(2,2-difluoroethoxy)-5-fluorophenyl)ethyl)-3-(1-(tetrahydro-2H-pyran-2-yl)-1H-pyrazol-4-yl) pyrazolo [1,5-a] pyrimidin-5-amine]	
3.5	3.3	4.7	CC(=O)n1cc(-c2cnn3ccc(N[C@H](C)c4cc(F)ccc4OCC(F)F)nc23)cn1 [Compound 12, (R)-1-(4-(5-((1-(2-(2,2-difluoroethoxy)-5-fluorophenyl)ethyl)amino)pyrazolo [1,5-a]pyrimidin-3-yl)-1H-pyrazol-1-yl) ethanone]	
4.2	11.3	6.7	CC(Nc1ccn2ncc(-c3cn[nH]c3)c2n1)c1cc(F)cc(F)c1OCC(F)F (stereo not drawn) [Compound 14, N-(1-(2-(2,2-difluoroethoxy)-3,5-difluorophenyl)ethyl)-3-(1H-pyrazol-4-yl) pyrazolo [1,5-a] pyrimidin-5-amine]	
5.1	10.5	8.5	CC(Nc1ccn2ncc(-c3cnn(C4CCCC4O)c3)c2n1)c1cc(F)ccc1O (stereo not drawn) [Compound a2-3, 4-fluoro-2-(1-((3-(1-(2-hydroxycyclopentyl)-1H-pyrazol-4-yl)pyrazolo [1,5-a]pyrimidin-5-yl)amino)ethyl) phenol]	
1.5	2.3	15.1	C[C@@H](Nc1ccn2ncc(-c3cnn(C)c3)c2n1)c1cc(F)ccc1OCCF [Compound a10-17, (R)-N-(1-(5-fluoro-2-(2-fluoroethoxy)phenyl)ethyl)-3-(1-methyl-1H-pyrazol-4-yl) pyrazolo [1,5-a] pyrimidin-5-amine]	
3.1	3.37	3.8	CC(Nc1ccn2ncc(-c3cn[nH]c3)c2n1)c1cc(F)ccc1OC(F)F (stereo not drawn) [Compound b4-7, N-(1-(2-(difluoromethoxy)-5-fluorophenyl)ethyl)-3-(1H-pyrazol-4-yl) pyrazolo [1,5-a] pyrimidin-5-amine]	
4.3	8.4	8.4	CCOc1ccc(F)cc1C(C)Nc1ccn2ncc(-c3cn[nH]c3)c2n1 (stereo not drawn) [Compound b5-11, N-(1-(2-ethoxy-5-fluorophenyl)ethyl)-3-(1H-pyrazol-4-yl) pyrazolo [1,5-a]pyrimidin-5-amine]	
